# According to publication PMC9917443 (eLife, 2023):
# Experiments:
# [1] = test system: GB1a/2 receptors in HEK293T cells; experiment: APP17-TMR binding / displacement at GB1a/2 receptors in HEK293T cells; settings: 10 μM peptide
# Method: Transfected HEK293T cells expressing Flag-GB1a and Flag-GB2 were seeded into 96-well microplates (Greiner Bio-One, Kremsmünster, Austria) at 50,000 cells/well. After 18 hr, peptides were mixed with conditioned medium at the following final concentrations: APP17-TMR (1 µM) with either APP17 (10 µM), sc-APP17 (10 µM), or PBS (vehicle); sc-APP17-TMR (1 µM) in PBS was used as a negative control. After removal of medium, peptide mixes were added to the wells and cells incubated in the dark for 1 hr at room temperature. After removal of the peptides, PBS with MgCl2 and CaCl2 (Sigma-Aldrich) was added to the wells. TMR fluorescence was monitored with a Spark microplate reader (Tecan Group, Männerdorf, Switzerland) using a monochromator (Excitation 544 nm, […] bandwidth; detection […], 25 nm bandwidth). TMR fluorescence was determined after subtraction of the sc-APP17-TMR fluorescence measured at HEK293T cells transfected with pCI plasmid.
# [2] = test system: GBR-activated K^+ currents in cultured hippocampal neurons; experiment: K^+ currents in cultured hippocampal neurons (patch-clamp); assay type: cell-based, mouse; settings: for K^+ currents evoked by compound alone (in words): 5 µM, -70 mV
# Method: APP17 signaling through native GBRs may depend on protein-protein interactions that are not preserved in the membrane preparations used for the [^35S]GTPγS binding assay. Therefore, we tested whether APP17 influences GBR-mediated Gβγ signaling to K^+ channels in cultured hippocampal neurons using patch-clamp electrophysiology, which preserves the native environment of receptors ([Schuler et al., 2001]; [Vigot et al., 2006]). […] . Neuronal cultures and HEK293T cells were prepared as described ([Dinamarca et al., 2019]). Coverslips with hippocampal neurons (DIV 12–15) or HEK293T cells were transferred to a chamber containing a low-K^+ bath solution (in mM): 145 NaCl, 4 KCl, 5 HEPES, 5.5 D-glucose, 1 MgCl2, and 1.8 CaCl2 (pH 7.4 adjusted with NaOH). Recordings were performed at room temperature using borosilicate pipettes of 3–5 MΩ resistance tips, filled with K-gluconate-based pipette solution (in mM): 150 K-gluconate, 1.1 EGTA, 10 HEPES, 10 Tris-phosphocreatine, 0.3 NaGTP, and 4 MgATP (pH 7.2 adjusted with KOH). Upon achieving whole-cell access, cells were held in voltage-clamp mode at −70 mV (with no correction for liquid junction potential) and baclofen-induced K^+ currents were induced in a high-K^+ bath solution (in mM): 120 NaCl, 25 KCl, 5 HEPES, 5.5 D-glucose, 1 MgCl2, and 1.8 CaCl2 (pH 7.4 adjusted with NaOH). […] Schaffer collaterals were stimulated at 0.1 Hz with brief current pulses via bipolar Pt/Ir wires. Evoked EPSCs were recorded at –60 mV with a Cs^+-based intracellular solution. Baclofen and peptides were bath applied in standard ACSF at room temperature. We recorded mEPSCs in primary neuronal cultures established from embryonic (E15–17) murine hippocampus at DIV13–16 in the presence of 0.5 μM TTX at room temperature ([Dinamarca et al., 2019]). APP17 (250 nM) and (R)-baclofen (30 μM) were applied via superfusion. Template matching with pClamp 10 software (Molecular Devices) was used to detect individual mEPSCs.
# [3] = test system: GB1a/2 receptor-induced Kir3 currents in HEK293T cells; experiment: Kir3 K^+ currents in transfected HEK293T cells (patch-clamp); assay type: cell-based
# [4] = test system: spontaneous neuronal activity in the auditory cortex; experiment: two-photon Ca^2+ imaging of auditory cortex in anesthetized mice; settings: 5 µM perfused over cortex; peptides 60 min, baclofen 15 min
# [5] = biological target: T1, GB1a/2 receptors (Homo sapiens, UniProt O75899+Q9UBS5); experiment: PKA luminescence assay (R-RLuc-N / C-RLuc-C) of Gαi signaling in HEK293T cells
# T1 sequence (Q9UBS5 15-961 limits assumed): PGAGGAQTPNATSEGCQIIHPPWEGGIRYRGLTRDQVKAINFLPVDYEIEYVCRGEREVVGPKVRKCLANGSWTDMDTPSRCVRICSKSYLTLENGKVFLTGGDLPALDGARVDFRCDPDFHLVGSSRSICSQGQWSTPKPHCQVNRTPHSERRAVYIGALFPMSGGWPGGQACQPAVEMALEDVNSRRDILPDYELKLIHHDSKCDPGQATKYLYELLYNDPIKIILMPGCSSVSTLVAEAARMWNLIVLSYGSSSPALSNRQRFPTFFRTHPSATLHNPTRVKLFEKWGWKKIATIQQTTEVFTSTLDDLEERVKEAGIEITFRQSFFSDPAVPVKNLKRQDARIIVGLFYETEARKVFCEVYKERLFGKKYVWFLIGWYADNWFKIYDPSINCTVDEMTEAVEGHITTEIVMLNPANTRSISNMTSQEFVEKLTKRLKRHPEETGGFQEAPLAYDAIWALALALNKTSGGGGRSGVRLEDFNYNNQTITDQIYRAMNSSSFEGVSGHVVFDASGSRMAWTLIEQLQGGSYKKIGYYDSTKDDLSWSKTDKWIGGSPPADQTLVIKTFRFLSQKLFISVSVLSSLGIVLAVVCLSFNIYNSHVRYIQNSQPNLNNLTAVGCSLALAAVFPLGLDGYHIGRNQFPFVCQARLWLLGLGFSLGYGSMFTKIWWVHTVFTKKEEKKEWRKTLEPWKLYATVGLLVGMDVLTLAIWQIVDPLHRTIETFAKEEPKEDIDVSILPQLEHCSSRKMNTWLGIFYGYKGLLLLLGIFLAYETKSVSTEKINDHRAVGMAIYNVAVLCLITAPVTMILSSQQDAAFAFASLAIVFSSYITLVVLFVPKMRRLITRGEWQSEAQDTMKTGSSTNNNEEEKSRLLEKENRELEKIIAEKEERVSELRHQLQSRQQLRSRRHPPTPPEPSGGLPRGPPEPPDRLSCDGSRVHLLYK
# T1 sequence (O75899 42-941 partner): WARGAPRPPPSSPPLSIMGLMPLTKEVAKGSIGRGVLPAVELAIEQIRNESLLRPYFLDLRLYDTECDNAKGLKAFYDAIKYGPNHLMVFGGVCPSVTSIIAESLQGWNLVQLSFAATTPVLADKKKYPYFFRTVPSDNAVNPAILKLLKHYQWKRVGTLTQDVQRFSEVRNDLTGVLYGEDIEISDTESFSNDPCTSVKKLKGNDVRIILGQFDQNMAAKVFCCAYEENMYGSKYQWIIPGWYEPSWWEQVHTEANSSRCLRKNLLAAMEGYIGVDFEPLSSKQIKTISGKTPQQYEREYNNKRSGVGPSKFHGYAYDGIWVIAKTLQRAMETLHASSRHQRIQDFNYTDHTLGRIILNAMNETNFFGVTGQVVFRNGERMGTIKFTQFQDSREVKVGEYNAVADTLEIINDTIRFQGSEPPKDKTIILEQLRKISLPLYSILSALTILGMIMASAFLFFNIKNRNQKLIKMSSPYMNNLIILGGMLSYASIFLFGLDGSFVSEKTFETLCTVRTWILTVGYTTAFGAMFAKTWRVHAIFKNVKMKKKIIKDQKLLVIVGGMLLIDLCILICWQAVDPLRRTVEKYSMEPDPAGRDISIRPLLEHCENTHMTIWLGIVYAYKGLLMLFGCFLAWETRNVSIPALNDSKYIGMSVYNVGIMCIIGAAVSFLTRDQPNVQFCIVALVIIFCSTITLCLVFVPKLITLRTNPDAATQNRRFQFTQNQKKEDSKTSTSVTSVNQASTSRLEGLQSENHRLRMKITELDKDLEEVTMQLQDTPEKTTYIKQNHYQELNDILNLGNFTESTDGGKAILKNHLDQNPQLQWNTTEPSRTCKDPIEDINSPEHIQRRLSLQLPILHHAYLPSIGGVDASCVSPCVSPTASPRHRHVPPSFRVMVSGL
# [6] = biological target: T1, GB1a/2 receptors; experiment: inter-subunit FRET conformational sensor (HA-GB1a-ACP / Flag-SNAP-GB2) in HEK293T cells; settings: for Fig. 2c value, 10mM GABA / Fig. 2c value, Basal: + Vehicle Basal given as 100; for Fig. 2c value, Basal: Basal (no GABA)
# [7] = biological target: T1, GB1a/2 receptors; experiment: Ca^2+ mobilization assay (Calcium 6) in HEK293T cells expressing GB1a/2; assay type: cell-based; parameters: Flag (N); expressed in transfected cells; host or cells: HEK293T cells stably expressing chimeric Gαqi; settings: 1 or 10 μM
# [8] = test system: mEPSCs of cultured hippocampal neurons; experiment: mEPSC frequency in cultured hippocampal neurons; assay type: cell-based, mouse; settings: baclofen 30 µM, after APP17, 0.5 μM TTX
# Method: (§1) GB1a/2 receptors are abundant at axon terminals where they inhibit neurotransmitter release ([Vigot et al., 2006]). […] A GBR antagonist blocked the effect of APP17 on the mEPSC frequency, supporting a GBR-dependent mechanism. […] We additionally studied whether APP17 at 250 nM influences eEPSC amplitudes in acute hippocampal slices. Postsynaptic GBR-activated K^+ currents were blocked with a Cs^+-based intracellular solution, which allowed to specifically monitor the activity of presynaptic GBRs.
# (§2) Neuronal cultures and HEK293T cells were prepared as described ([Dinamarca et al., 2019]). Coverslips with hippocampal neurons (DIV 12–15) or HEK293T cells were transferred to a chamber containing a low-K^+ bath solution (in mM): 145 NaCl, 4 KCl, 5 HEPES, 5.5 D-glucose, 1 MgCl2, and 1.8 CaCl2 (pH 7.4 adjusted with NaOH). Recordings were performed at room temperature using borosilicate pipettes of 3–5 MΩ resistance tips, filled with K-gluconate-based pipette solution (in mM): 150 K-gluconate, 1.1 EGTA, 10 HEPES, 10 Tris-phosphocreatine, 0.3 NaGTP, and 4 MgATP (pH 7.2 adjusted with KOH). […] Evoked EPSCs were recorded at –60 mV with a Cs^+-based intracellular solution. […] We recorded mEPSCs in primary neuronal cultures established from embryonic (E15–17) murine hippocampus at DIV13–16 in the presence of 0.5 μM TTX at room temperature ([Dinamarca et al., 2019]). […]
# [9] = test system: eEPSCs of CA1 pyramidal neurons; experiment: eEPSC amplitudes in CA1 pyramidal neurons of acute hippocampal slices; parameters: species or system mouse; settings: APP17 250 nM or baclofen 20 µM, Cs^+-based intracellular solution
# Method: as §1, §2
# [10] = test system: native GBRs in mouse brain membranes; experiment: [^35S]GTPγS binding in brain membrane preparations
# [11] = test system: mEPSCs in brain slices / cultured hippocampal neurons; settings: cultured hippocampal neurons APP17 250 nM, ref Rice et al., 2019; cited from earlier work
# Excerpt: GBRs are composed of a GB1a or GB1b subunit with a GB2 subunit, which generates heterodimeric GB1a/2 and GB1b/2 receptors ([Pin and Bettler, 2016]). GB1a differs from GB1b by the presence of two N-terminal sushi domains (SD1/2). GB1a/2 and GB1b/2 receptors predominantly localize to pre- and postsynaptic sites, respectively ([Vigot et al., 2006]). APP and sAPP bind to SD1 of GB1a ([Schwenk et al., 2016]; [Dinamarca et al., 2019]; [Rice et al., 2019]). Synthetic APP peptides of 9 or 17 amino acid residues, termed APP9 and APP17, are sufficient for binding and inducing a stable conformation in SD ... || GB1a/2 receptors are abundant at axon terminals where they inhibit neurotransmitter release ([Vigot et al., 2006]). […] A GBR antagonist blocked the effect of APP17 on the mEPSC frequency, supporting a GBR-dependent mechanism.
# [12] = 1 μM APP17, best-fit, different curve for each data set
# [13] = Global (shared) fit, Vehicle and 1 μM APP17, one curve for all data sets
# [14] = Vehicle, best-fit, different curve for each data set
compound,measurement,setting,value
Ac-DWGADTVSGDGYDAWDD-NH2 [sc-APP17],displacement of 1 μM APP17-TMR from GB1a/2 receptors (in words),[1],not sc-APP17 displaced 1 μM APP17-TMR from GB1a/2 receptors
same,baclofen-induced K^+ currents in presence of peptide (in words),[2]; 5 µM peptide + 5 µM baclofen,elicited currents of similar amplitudes as baclofen alone
same,K^+ currents evoked by compound alone (in words),[2],did not elicit any currents
same,GABA-induced Kir3 currents in presence of peptide (in words),[3]; 5 µM GABA,nor did the peptides alter K^+ currents in the presence of 5 µM GABA
same,Kir3 K^+ currents evoked by compound alone (in words),[3]; transfected HEK293T cells,did not trigger K^+ currents
same,spontaneous Ca^2+ transients (in words),[4],no significant effect compared to ACSF
same,GABA-mediated PKA inactivation in presence of peptide (in words),[5]; 10 μM peptide,GABA-mediated PKA inactivation was comparable
same,effect of peptide alone on luminescence/receptor activity (in words),[5]; 10 μM peptide,"no agonistic, inverse agonistic, or antagonistic properties"
same,receptor activity with APP695 in cis (in words),"[5]; peptide, APP695 in cis",did not significantly alter GB1/2 receptor activity
same,"Fig. 2c value, 10mM GABA","[6]; 1 µM peptide with 10mM GABA, replicate 2",29.41
same,"Fig. 2c value, 10mM GABA","[6]; 1 µM peptide with 10mM GABA, replicate 3",73.18
same,"Fig. 2c value, 10mM GABA","[6]; 1 µM peptide with 10mM GABA, replicate 4",69.99
same,"Fig. 2c value, 10mM GABA","[6]; 1 µM peptide with 10mM GABA, replicate 5",51.73
same,"Fig. 2c value, 10mM GABA","[6]; 1 µM peptide with 10mM GABA, replicate 6",86.53
same,"Fig. 2c value, Basal","[6]; 1 µM peptide, replicate 1",88.34
same,"Fig. 2c value, Basal","[6]; 1 µM peptide, replicate 2",87.73
same,"Fig. 2c value, Basal","[6]; 1 µM peptide, replicate 3",107.5
same,"Fig. 2c value, Basal","[6]; 1 µM peptide, replicate 4",102.7
same,"Fig. 2c value, Basal","[6]; 1 µM peptide, replicate 5",121
same,"Fig. 2c value, Basal","[6]; 1 µM peptide, replicate 6",65.57
same,"Fig. 2c value, 10mM GABA","[6]; 10 µM peptide with 10mM GABA, replicate 1",53.02
same,"Fig. 2c value, 10mM GABA","[6]; 10 µM peptide with 10mM GABA, replicate 2",53.95
same,"Fig. 2c value, 10mM GABA","[6]; 10 µM peptide with 10mM GABA, replicate 3",60.06
same,"Fig. 2c value, 10mM GABA","[6]; 10 µM peptide with 10mM GABA, replicate 4",60.44
same,"Fig. 2c value, 10mM GABA","[6]; 10 µM peptide with 10mM GABA, replicate 6",23.67
same,"Fig. 2c value, Basal","[6]; 10 µM peptide, replicate 1",90.75
same,"Fig. 2c value, Basal","[6]; 10 µM peptide, replicate 2",69.76
same,"Fig. 2c value, Basal","[6]; 10 µM peptide, replicate 3",95.95
same,"Fig. 2c value, Basal","[6]; 10 µM peptide, replicate 4",91.68
same,"Fig. 2c value, Basal","[6]; 10 µM peptide, replicate 5",104.2
same,"Fig. 2c value, Basal","[6]; 10 µM peptide, replicate 6",90.96
same,FRET in the presence of 10 mM GABA (in words),[6]; 1 or 10 μM peptide + 10 mM GABA,no significant differences in FRET
same,"FRET, basal, peptide alone (in words)",[6]; 1 or 10 μM peptide without GABA,no significant changes in FRET
same,intracellular Ca^2+ mobilization (in words),[7],did not increase intracellular Ca^2+
NCC(CC(=O)O)c1ccc(Cl)cc1 (centres unmarked) [baclofen],K^+ currents evoked by compound alone (in words),[2],activation of K^+ channels by Gβγ
same,mEPSC frequency (in words),[8],significantly reduced mEPSC frequency
same,eEPSC amplitude (in words),[9],able to reduce the amplitudes of eEPSCs
same,spontaneous Ca^2+ transients (in words),[4],reduced spontaneous Ca^2+ transients after 15 min of perfusion
NCCCC(=O)O [GABA],Bottom,[10]; [12],0.9821
same,HillSlope,[10]; [12],0.6558
same,Span,[10]; [12],0.4027
same,Top,[10]; [12],1.385
same,Basal,"[10]; GABA curve fit, vehicle, n=9",0.99
same,EMax,"[10]; GABA, vehicle, n=9",1.37
same,Bottom,[10]; [13],0.9874
same,HillSlope,[10]; [13],0.6587
same,Span,[10]; [13],0.3874
same,Top,[10]; [13],1.375
same,Bottom,[10]; [14],0.9919
same,HillSlope,[10]; [14],0.6543
same,Span,[10]; [14],0.3771
same,Top,[10]; [14],1.369
C[C@H](NC[C@H](O)CP(=O)(O)Cc1ccccc1)c1ccc(Cl)c(Cl)c1 [CGP55845],mEPSC frequency (in words),[11],reduced the inhibitory effect of APP17 on the mEPSC frequency
